Source: ChEMBL document CHEMBL3872283, “Design, Synthesis, and Evaluation of Novel and Selective G-protein Coupled Receptor 120 (GPR120) Spirocyclic Agonists” (ACS Med Chem Lett, 2017)
Calls of active or inactive are those of the source. No cut-off for these calls is given here.

How the values were obtained:
[1] = target: Voltage-gated inwardly rectifying potassium channel KCNH2 (Homo sapiens, UniProt Q12809); assay: Displacement of [35S]-MK499 from human ERG expressed in HEK293 cell membranes
[2] = Antidiabetic activity in C57BL/6 mouse administered 60 mins via oral gavage prior to dextrose challenge measured up to 120 mins post dextrose challenge by oGTT; assay type: functional
[3] = Half life in dog at 1 mg/kg, iv or 2 mg/kg, po by LC/MS/MS analysis; assay type: ADME, organism-based, Canis lupus familiaris; settings: in vivo
[4] = target: T1, Free fatty acid receptor 4 (Mus musculus, UniProt Q7TMA4); assay: Agonist activity at mouse GPR120 expressed in CHOK1 cells assessed as induction of IP1 accumulation after 60 mins by HTRF assay; assay type: functional, cell-based, CHO-K1
T1 sequence (Q7TMA4 whole entry): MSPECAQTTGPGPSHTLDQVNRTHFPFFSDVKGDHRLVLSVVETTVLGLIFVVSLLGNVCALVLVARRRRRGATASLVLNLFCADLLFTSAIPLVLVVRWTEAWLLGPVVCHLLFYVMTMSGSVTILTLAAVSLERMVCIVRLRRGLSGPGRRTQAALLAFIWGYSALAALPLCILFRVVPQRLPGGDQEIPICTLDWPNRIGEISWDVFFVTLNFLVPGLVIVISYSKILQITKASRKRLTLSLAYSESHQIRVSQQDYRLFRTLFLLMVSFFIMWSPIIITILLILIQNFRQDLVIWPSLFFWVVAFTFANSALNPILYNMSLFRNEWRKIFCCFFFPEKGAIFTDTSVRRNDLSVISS

[5] = Plasma clearance in mouse at 2 mg/kg, iv or 10 mg/kg, po by LC/MS/MS analysis; assay type: ADME, organism-based
[6] = target: T1, Free fatty acid receptor 4; assay: Agonist activity at mouse GPR120 expressed in U2OS cells assessed as induction of beta-arrestin2 recruitment after 90 mins by luminescence assay; assay type: cell-based
[7] = AUC in dog at 1 mg/kg, iv by LC/MS/MS analysis; assay type: ADME, organism-based, Canis lupus familiaris; settings: in vivo
[8] = Protein binding in dog plasma at 1 mg/kg, iv or 2 mg/kg, po by LC/MS/MS analysis; assay type: ADME, organism-based, Canis lupus familiaris; settings: read-out: PPB (converted)
[9] = AUC in mouse at 2 mg/kg, iv by LC/MS/MS analysis; assay type: ADME, organism-based; settings: in vivo
[10] = AUC in rat at 1 mg/kg, iv by LC/MS/MS analysis; assay type: ADME, organism-based; settings: in vivo
Mus musculus [11] = assay: Toxicity in diet-induced obese mouse assessed as change in body weight at 30 mg/kg, po qd administered daily via gavage for 28 days; assay type: organism-based; settings: in vivo, 672 h
Mus musculus [12] = assay: Antidiabetic activity in diet-induced obese mouse assessed as reduction in homeostatic model assessment of insulin resistance at 30 mg/kg, po qd administered daily via gavage for 14 days measured on day 14 post dose; assay type: functional, organism-based
[13] = Volume of distribution at steady state in mouse at 2 mg/kg, iv or 10 mg/kg, po by LC/MS/MS analysis; assay type: ADME, organism-based; settings: in vivo, read-out: Vdss
[14] = Oral bioavailability in rhesus monkey at 1 mg/kg by LC/MS/MS analysis; assay type: ADME, organism-based, Macaca mulatta; settings: in vivo
Cytochrome P450 2C9 = Cytochrome P450 2C9 (Homo sapiens, UniProt P11712); assay: Inhibition of human CYP2C9; assay type: ADME
[15] = MRT in rat at 1 mg/kg, iv or 2 mg/kg, po by LC/MS/MS analysis; assay type: ADME, organism-based; settings: in vivo
Mus musculus [16] = assay: Antidiabetic activity in diet-induced obese mouse assessed as insulin sensitivity by measuring reduction in glucose at 30 mg/kg, po qd administered daily via gavage for 28 days measured on day 28 post dose; assay type: functional, organism-based
[17] = target: Voltage-dependent L-type calcium channel subunit alpha-1C (Homo sapiens, UniProt Q13936); assay: Inhibition of Cav1.2 (unknown origin)
[18] = Oral bioavailability in rat at 2 mg/kg by LC/MS/MS analysis; assay type: ADME, organism-based; settings: in vivo
[19] = MRT in rhesus monkey at 0.5 mg/kg, iv or 1 mg/kg, po by LC/MS/MS analysis; assay type: ADME, organism-based, Macaca mulatta; settings: in vivo
[20] = target: T2, Peroxisome proliferator-activated receptor gamma (Homo sapiens) (UniProt P37231); assay: Displacement of [3H]Rosiglitazone from recombinant human PPARgamma expressed in insect cells
T2 sequence (whole entry): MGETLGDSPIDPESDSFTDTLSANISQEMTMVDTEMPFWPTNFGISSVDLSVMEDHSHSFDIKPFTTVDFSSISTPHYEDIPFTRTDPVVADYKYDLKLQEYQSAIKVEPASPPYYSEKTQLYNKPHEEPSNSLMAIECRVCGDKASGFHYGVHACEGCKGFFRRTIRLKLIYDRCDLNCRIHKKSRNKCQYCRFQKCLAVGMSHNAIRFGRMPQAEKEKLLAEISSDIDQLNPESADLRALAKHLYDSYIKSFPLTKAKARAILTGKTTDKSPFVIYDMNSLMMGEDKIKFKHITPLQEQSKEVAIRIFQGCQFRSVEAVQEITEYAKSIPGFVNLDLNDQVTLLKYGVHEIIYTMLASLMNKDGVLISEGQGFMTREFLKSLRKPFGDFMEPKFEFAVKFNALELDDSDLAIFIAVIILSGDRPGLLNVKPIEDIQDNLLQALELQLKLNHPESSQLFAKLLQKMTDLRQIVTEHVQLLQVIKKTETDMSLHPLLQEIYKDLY

[21] = Protein binding in mouse plasma at 2 mg/kg, iv or 10 mg/kg, po by LC/MS/MS analysis; assay type: ADME, organism-based; settings: read-out: PPB (converted)
[22] = target: T3, Peroxisome proliferator-activated receptor alpha (Homo sapiens) (UniProt Q07869); assay: Binding affinity to human PPARalpha
T3 sequence (whole entry): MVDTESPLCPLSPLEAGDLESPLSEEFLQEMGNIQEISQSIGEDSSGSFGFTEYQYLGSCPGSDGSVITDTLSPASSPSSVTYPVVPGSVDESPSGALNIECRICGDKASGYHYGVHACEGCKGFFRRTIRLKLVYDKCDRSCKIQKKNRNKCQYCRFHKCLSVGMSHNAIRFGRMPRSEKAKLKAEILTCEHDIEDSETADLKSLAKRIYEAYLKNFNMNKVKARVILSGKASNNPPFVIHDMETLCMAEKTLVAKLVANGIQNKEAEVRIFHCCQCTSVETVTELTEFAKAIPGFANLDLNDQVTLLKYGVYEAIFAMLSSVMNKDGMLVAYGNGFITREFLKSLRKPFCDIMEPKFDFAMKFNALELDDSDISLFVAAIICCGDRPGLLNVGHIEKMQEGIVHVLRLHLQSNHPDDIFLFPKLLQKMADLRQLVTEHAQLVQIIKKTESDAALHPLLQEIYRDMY

[23] = Oral bioavailability in mouse at 10 mg/kg by LC/MS/MS analysis; assay type: ADME, organism-based; settings: in vivo
[24] = Plasma clearance in dog at 1 mg/kg, iv or 2 mg/kg, po by LC/MS/MS analysis; assay type: ADME, organism-based, Canis lupus familiaris
Mus musculus [25] = assay: Antidiabetic activity in diet-induced obese mouse assessed as increase in glucose infusion rate during hyperinsulinemic euglycemic clamp procedure at 30 mg/kg, po qd administered daily via gavage measured after 28 days; assay type: functional, organism-based
[26] = MRT in mouse at 2 mg/kg, iv or 10 mg/kg, po by LC/MS/MS analysis; assay type: ADME, organism-based; settings: in vivo

Voltage-dependent L-type calcium channel subunit alpha-1C, sequence (Q13936 whole entry): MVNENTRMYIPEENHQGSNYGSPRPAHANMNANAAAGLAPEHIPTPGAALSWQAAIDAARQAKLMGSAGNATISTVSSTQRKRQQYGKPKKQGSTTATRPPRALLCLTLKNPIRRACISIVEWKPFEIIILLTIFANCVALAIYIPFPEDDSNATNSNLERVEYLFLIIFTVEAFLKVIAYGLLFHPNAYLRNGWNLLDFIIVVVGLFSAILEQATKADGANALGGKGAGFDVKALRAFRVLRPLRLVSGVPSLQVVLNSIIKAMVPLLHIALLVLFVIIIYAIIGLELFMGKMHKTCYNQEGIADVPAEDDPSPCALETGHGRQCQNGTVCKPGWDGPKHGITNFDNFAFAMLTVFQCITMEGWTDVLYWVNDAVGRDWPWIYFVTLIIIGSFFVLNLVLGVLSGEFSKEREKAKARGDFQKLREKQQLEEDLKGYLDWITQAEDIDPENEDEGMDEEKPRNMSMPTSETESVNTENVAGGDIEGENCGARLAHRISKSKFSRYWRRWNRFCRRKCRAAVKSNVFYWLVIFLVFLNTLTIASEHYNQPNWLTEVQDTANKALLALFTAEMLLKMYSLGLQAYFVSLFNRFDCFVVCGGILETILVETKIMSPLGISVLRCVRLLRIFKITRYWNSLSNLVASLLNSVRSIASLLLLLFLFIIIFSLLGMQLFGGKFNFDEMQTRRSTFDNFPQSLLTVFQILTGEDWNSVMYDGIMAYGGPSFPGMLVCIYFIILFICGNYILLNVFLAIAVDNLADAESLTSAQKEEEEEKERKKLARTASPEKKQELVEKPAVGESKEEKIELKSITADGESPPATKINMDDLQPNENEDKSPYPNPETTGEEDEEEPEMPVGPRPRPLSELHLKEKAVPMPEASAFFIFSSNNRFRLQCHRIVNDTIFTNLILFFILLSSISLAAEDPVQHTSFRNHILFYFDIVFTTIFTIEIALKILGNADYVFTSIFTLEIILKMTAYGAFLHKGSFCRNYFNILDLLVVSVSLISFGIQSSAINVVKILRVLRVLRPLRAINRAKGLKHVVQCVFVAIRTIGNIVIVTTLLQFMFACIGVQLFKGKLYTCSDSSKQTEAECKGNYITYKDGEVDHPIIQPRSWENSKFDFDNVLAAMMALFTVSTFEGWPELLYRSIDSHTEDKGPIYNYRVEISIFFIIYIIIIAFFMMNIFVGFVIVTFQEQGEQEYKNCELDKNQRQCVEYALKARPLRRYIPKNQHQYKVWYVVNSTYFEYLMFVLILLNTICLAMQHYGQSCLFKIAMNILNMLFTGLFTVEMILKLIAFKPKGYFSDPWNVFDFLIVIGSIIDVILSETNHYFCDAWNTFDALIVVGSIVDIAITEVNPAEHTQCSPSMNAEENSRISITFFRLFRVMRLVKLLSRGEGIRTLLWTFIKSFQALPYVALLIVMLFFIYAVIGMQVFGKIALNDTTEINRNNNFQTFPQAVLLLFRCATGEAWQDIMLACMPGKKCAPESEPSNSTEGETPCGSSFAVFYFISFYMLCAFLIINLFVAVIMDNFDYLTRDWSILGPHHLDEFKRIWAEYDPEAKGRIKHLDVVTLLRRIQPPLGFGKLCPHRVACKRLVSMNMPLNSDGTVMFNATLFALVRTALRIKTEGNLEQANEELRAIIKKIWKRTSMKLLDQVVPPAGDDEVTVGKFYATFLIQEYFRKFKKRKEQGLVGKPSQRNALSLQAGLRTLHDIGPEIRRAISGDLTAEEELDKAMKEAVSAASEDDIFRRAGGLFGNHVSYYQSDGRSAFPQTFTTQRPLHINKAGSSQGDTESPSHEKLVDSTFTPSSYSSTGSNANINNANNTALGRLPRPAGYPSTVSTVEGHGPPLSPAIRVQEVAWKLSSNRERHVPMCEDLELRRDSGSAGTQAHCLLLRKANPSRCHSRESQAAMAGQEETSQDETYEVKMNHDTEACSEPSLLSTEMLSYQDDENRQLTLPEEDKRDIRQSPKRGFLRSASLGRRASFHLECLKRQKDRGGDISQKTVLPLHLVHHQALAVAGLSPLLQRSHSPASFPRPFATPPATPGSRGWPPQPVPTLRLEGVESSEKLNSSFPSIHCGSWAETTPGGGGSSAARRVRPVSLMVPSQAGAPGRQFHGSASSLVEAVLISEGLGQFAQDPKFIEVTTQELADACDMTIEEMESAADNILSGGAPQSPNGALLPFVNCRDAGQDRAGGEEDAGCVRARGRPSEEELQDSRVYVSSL
Voltage-gated inwardly rectifying potassium channel KCNH2, sequence (Q12809 whole entry): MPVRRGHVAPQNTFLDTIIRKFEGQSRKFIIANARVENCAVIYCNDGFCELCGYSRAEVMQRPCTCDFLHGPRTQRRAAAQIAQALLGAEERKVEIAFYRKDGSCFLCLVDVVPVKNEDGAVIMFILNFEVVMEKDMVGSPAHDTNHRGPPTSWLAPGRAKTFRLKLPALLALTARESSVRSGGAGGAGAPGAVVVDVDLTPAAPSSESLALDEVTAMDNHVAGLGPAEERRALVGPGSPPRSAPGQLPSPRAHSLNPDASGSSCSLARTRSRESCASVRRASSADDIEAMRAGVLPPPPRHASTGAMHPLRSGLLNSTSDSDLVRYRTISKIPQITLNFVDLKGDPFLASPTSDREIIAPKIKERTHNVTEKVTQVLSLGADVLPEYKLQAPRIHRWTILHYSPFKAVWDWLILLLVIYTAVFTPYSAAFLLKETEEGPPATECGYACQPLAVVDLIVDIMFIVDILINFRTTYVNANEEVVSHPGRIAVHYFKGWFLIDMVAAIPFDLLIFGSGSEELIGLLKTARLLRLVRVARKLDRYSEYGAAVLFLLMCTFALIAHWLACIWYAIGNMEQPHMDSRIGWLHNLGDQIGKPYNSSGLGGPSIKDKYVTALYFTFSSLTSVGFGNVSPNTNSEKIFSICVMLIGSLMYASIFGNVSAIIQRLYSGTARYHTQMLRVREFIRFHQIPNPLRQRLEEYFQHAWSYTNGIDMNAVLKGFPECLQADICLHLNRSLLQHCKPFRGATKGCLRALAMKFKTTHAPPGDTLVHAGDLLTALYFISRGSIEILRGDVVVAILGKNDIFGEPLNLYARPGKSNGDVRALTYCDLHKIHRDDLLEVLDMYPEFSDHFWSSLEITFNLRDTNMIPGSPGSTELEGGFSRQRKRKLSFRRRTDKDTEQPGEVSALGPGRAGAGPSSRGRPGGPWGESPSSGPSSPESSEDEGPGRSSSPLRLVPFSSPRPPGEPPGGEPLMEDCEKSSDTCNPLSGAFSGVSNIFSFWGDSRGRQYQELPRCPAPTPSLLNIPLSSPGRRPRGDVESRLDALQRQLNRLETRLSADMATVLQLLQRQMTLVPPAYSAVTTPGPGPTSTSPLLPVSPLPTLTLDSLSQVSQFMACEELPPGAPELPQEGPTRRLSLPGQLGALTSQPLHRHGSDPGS
Cytochrome P450 2C9, sequence (P11712 whole entry): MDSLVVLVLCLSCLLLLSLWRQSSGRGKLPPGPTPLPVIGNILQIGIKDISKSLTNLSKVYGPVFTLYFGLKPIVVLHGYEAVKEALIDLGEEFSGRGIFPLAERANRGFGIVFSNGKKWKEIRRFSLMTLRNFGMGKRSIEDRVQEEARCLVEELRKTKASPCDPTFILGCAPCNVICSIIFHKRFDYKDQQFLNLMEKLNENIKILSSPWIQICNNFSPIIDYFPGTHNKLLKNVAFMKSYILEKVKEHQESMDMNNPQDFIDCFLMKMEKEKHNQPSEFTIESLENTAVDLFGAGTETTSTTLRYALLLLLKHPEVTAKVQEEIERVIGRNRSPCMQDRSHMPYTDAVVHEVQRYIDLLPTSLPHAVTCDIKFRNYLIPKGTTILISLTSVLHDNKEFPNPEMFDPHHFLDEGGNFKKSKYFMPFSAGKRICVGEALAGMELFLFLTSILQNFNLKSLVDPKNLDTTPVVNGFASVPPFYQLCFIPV

- half-life [3]: 11 h
- EC50 [4]: 33 nM
- clearance [5]: 8.4 mL/min/kg
- EC50 [6]: 54 nM
- AUC [7]: 4.6 µM·h
- fraction unbound [8]: 0.0015
- AUC [9]: 14.6 µM·h
- AUC [10]: 17.5 µM·h
- Vd [13]: 8.9 L/kg
- bioavailability [14]: 77%
- INH (Cytochrome P450 2C9): > 48 µM
- MRT [15]: 3 h
- bioavailability [18]: 95%
- MRT [19]: 10.1 h
- INH [20]: > 10 µM
- fraction unbound [21]: 0.0021
- Activity [22]: > 10 µM
- bioavailability [23]: 100%
- clearance [24]: 9.8 mL/min/kg
- MRT [26]: 26.5 h
SMILES: O=C(O)CC1CCC2(CC1)CCN(c1cc(OC(F)(F)F)ccc1Cl)CC2
- INH [1]: > 60 µM
- Activity [2]: Dose-dependent effect
- Activity (Mus musculus [11]): Non-Toxic
- Activity (Mus musculus [12]): Active
- Activity (Mus musculus [16]): Active
- INH [17]: 21 µM
- Activity (Mus musculus [25]): Active
